Literature values in US8252902B2, “Antibody targeting compounds” (The Scripps Research Institute, priority 2001, dated 2012).

What was measured:
[1] = tested on: HIV primary isolates and laboratory-adapted strains
VEGFR-2 = VEGFR-2 (Homo sapiens, UniProt P35968)
[2] = tested on: VEGF-mediated angiogenesis

VEGFR-2, sequence (P35968 20-1356, species assumed): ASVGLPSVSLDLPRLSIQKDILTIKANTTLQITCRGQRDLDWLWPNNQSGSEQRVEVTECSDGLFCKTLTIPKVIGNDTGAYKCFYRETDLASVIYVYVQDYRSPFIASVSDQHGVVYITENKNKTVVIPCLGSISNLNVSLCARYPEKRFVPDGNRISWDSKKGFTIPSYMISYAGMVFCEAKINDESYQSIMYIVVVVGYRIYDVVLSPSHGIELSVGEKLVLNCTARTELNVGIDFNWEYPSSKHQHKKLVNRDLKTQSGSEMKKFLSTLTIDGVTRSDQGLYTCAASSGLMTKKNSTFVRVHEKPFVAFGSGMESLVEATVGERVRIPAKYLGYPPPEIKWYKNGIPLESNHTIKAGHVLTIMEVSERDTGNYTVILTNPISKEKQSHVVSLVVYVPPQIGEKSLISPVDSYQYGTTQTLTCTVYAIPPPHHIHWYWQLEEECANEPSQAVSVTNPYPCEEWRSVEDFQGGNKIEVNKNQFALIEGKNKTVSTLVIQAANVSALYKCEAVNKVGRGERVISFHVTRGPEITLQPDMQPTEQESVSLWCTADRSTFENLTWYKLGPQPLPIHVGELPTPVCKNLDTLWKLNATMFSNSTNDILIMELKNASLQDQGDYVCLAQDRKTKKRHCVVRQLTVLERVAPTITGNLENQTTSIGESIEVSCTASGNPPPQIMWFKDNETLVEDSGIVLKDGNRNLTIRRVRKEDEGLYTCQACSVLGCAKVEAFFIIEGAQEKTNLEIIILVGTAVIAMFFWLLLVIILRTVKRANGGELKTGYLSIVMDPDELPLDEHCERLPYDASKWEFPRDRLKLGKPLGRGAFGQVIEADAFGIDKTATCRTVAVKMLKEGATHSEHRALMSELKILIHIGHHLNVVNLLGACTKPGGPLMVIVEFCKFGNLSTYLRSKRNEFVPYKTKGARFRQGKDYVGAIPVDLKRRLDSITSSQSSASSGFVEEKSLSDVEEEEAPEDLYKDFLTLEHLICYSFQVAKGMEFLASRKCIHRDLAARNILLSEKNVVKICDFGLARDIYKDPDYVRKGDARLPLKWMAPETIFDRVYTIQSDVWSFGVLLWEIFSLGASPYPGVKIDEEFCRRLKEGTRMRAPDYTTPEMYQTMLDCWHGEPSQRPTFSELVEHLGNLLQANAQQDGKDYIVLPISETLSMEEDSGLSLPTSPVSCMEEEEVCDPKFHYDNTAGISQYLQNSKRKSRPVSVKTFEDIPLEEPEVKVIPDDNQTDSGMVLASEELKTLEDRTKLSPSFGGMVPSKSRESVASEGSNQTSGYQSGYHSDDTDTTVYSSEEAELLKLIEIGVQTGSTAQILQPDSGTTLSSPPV

Molecule | anti-HIV activity [1] | interference with VEGF binding to VEGFR-2 (VEGFR-2) | inhibition of VEGF-mediated angiogenesis [2]
C=C(C)[C@@H]1CC[C@]2(C(=O)NCCCCCCCC(=O)N[C@@H](CC(C)C)[C@H](O)CC(=O)O)CC[C@]3(C)[C@H](CC[C@@H]4[C@@]5(C)CC[C@H](O)C(C)(C)[C@@H]5CC[C@]43C)[C@@H]12 [IC9564] | can inhibit both HIV primary isolates and laboratory-adapted strains |  | 
ATWLPPR (homo sapiens) [ATWLPPR (SEQ ID NO: 2)] |  | effectively interfered | inhibited
